Test results taken from patent US9464075B2 (priority 2008, dated 2016).

How the values were obtained:
A/M2-V27A [1] = molecular target: T1, A/M2-V27A (Influenza A virus, UniProt P0DOF5, V27A); assay type: cell-based, Influenza virus A/Udorn/72
A/M2-G34E = A/M2-G34E (Influenza A virus, UniProt P0DOF5, G34E); assay type: cell-based, Influenza virus A/Udorn/72
A/M2-S31N = A/M2-S31N (Influenza A virus, UniProt P0DOF5, S31N); assay type: cell-based, Influenza virus A/Udorn/72
A/M2-A30T = A/M2-A30T (Influenza A virus, UniProt P0DOF5, A30T); assay type: cell-based, Influenza virus A/Udorn/72
A/M2-V27G = A/M2-V27G (Influenza A virus, UniProt P0DOF5, V27G); assay type: cell-based, Influenza virus A/Udorn/72
A/M2-L26F = A/M2-L26F (Influenza A virus, UniProt P0DOF5, L26F); assay type: cell-based, Influenza virus A/Udorn/72
[2] = tested on: influenza virus, containing the A/M2-V27A mutation; assay type: cell-based
A/M2-V27A [3] = molecular target: T1, A/M2-V27A; assay type: cell-based

NC12CC3CC(CC(C3)C1)C2 [Amantadine, reference compound]
% remaining activity after application of 100 μM compound (A/M2-V27A [1]): 93.07 ± 1.9%
% remaining activity after application of 100 μM compound (A/M2-G34E): 100.4 ± 6.7%
% remaining activity after application of 100 μM compound (A/M2-S31N): 65.3 ± 2.7%
% remaining activity after application of 100 μM compound (A/M2-A30T): 104.6 ± 4.3%
% remaining activity after application of 100 μM compound (A/M2-V27G): 95 ± 4.9%
% remaining activity after application of 100 μM compound (A/M2-L26F): 51.8 ± 3.5%
inhibition of plaque formation (in words) [2]: failed to inhibit plaque formation

C1CCC2(CC1)CCN(C1=NCCN1)CC2 [BL-1743, 3-(4,5-Dihydro-1H-imidazol-2-yl)-3-aza-spiro[5.5]undecane, reference compound]
% remaining activity after application of 100 μM compound (A/M2-V27A [1]): 97.4 ± 1.8%
% remaining activity after application of 100 μM compound (A/M2-G34E): 89.8 ± 6.9%
% remaining activity after application of 100 μM compound (A/M2-S31N): 100 ± 0.67%
% remaining activity after application of 100 μM compound (A/M2-A30T): 102 ± 2.3%
% remaining activity after application of 100 μM compound (A/M2-V27G): 82.9 ± 9.3%
% remaining activity after application of 100 μM compound (A/M2-L26F): 89.2 ± 4.8%
inhibition of plaque formation (in words) [2]: failed to inhibit plaque formation

Cl.NC1CCC2(CCCCC2)CC1 [Compound 8]
% remaining activity after application of 100 μM compound (A/M2-V27A [1]): 46.6 ± 6.6%
% remaining activity after application of 100 μM compound (A/M2-G34E): 96. ± 5.9%
% remaining activity after application of 100 μM compound (A/M2-S31N): 99.1 ± 0.9%
inhibition of the mutant (in words) (A/M2-S31N): little inhibition
% remaining activity after application of 100 μM compound (A/M2-A30T): 98.1 ± 7.0%
% remaining activity after application of 100 μM compound (A/M2-V27G): 87.9 ± 6.1%
% remaining activity after application of 100 μM compound (A/M2-L26F): 32.4 ± 3.3%
concentration at which plaque formation was reduced [2]: 5 µM

CNC1CCC2(CCCCC2)CC1.Cl [Compound 9]
% remaining activity after application of 100 μM compound (A/M2-V27A [1]): 70.2 ± 1.55%
% remaining activity after application of 100 μM compound (A/M2-G34E): 101.7 ± 2.8%
% remaining activity after application of 100 μM compound (A/M2-S31N): 100 ± 4.1%
% remaining activity after application of 100 μM compound (A/M2-A30T): 101. ± 3.2%
% remaining activity after application of 100 μM compound (A/M2-V27G): 89.6 ± 4.1%
% remaining activity after application of 100 μM compound (A/M2-L26F): 72.6 ± 8.4%

Cl.NNC1CCC2(CCCCC2)CC1 [Compound 31, N′-Spiro[5.5]undec-3-yl-hydrazinium chloride]
AM2 V27A % inhibition at 100 μM (A/M2-V27A [3]): 31 (7.1%)

Cl.NC1CSC2(CCCCC2)SC1 [Compound 33, 1,5-Dithia-spiro[5.5]undec-3-yl-ammonium chloride]
AM2 V27A % inhibition at 100 μM (A/M2-V27A [3]): 33 (0%) 34 (46.9%)

NC1CSC2(CCCCCC2)SC1 [Compound 34, 1,5-Dithia-spiro[5.6]dodec-3-yl-ammonium chloride]
AM2 V27A % inhibition at 100 μM (A/M2-V27A [3]): 33 (0%) 34 (46.9%)

N=C(N)NC1CCC2(CCCCC2)CC1 [Compound 35]
AM2 V27A % inhibition at 100 μM (A/M2-V27A [3]): 35 (14.6%)
